The record followed here is US20260337245A1, “POLYPEPTIDE OR ANALOG THEREOF AND USE THEREOF” (Shenzhen Bay Laboratory, priority 2024, published 2026).

Each structure is given as a SMILES string. Starred links: 1 amine or outer side, 2 acyl side, 3 side chain; linkers in the order of their positions; H or OH if unused. Positions of bridges follow the written chain, without caps; N, C: chain ends. Non-standard residues stand in square brackets, D forms with d. Residues, ends and D or L forms follow the SMILES beside them. X1 = O=C(O)CCCCCCCCCCCCCCCCCCC(=O)N[C@@H](CCCCNC(=O)COCCOCCNC(=O)COCCOCCNC(=O)CCC(=O)N(CCNC(=O)C[*:1])CCNC(=O)C[*:2])C(=O)O; Hyp = O=C(O)[C@@H]1C[C@@H](O)CN1; αMeF = C[C@](N)(Cc1ccccc1)C(=O)O; Orn = NCCC[C@H](N)C(=O)O; Aib = CC(C)(N)C(=O)O

One experiment concerns the target T1, CTR (Homo sapiens, UniProt P30988).
T1 construct: expressed in transfected cells
T1 sequence (P30988 25-474): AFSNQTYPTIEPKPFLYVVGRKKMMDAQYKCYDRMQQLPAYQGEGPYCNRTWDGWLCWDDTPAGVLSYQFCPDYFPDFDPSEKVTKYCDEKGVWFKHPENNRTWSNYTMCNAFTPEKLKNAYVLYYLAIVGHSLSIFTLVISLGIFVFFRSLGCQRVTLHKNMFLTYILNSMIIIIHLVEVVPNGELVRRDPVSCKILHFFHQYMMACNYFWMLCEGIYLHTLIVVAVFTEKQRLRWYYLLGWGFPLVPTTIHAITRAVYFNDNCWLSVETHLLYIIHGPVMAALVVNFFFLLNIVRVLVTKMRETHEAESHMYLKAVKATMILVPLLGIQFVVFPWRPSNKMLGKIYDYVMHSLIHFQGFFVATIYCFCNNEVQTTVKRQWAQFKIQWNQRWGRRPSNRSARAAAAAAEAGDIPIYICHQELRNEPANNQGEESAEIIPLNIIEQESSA
Kind of experiment: HTRF cAMP assay, CTR. The following applies: HEK293/pGM-CREB-L-Luc/CTR pool, read-out: IC50 of receptor CTR. The format is cell-based. An excerpt:
(§1) 2. The polypeptide derivatives prepared in Example 1 and Example 2 of the present disclosure can bind to the target AMYR and CTR receptors on the cell membrane, activate the receptors and release cAMP. Therefore, the activity of the analyte can be determined by using an HTRF (homogeneous time-resolved fluorescence) method and using a cAMP detection kit. The specific steps were as follows:
(§2) A stable transfected cell line of HEK293/pGM-CREB-L-Luc/AMY3R pool and HEK293/pGM-CREB-L-Luc/CTR pool was constructed. The polypeptide derivatives (i.e., AMY-001 to AMY-041) prepared in Examples 1 and 2 were subjected to 5-fold serial dilution from a maximum of 1000 nM to prepare a dilution series containing 8 to 11 concentration gradients. Cagrilintide and sCT were selected as positive controls for testing, and a dilution series was prepared according to the same method for testing. The test cell lines were selected and treated with cAMP-specific trypsin for digestion, and then suspended with 3 mL of serum-free DMEM medium by pipetting, and the cells were counted. 5 μL of IBMX (prepared with serum-free DMEM medium, 0.5 mM) and test cells (5 μL/7500 cells/well) were sequentially added to a 384-well plate, incubated under the conditions of 37° C., 5% CO2 for 30 minutes, then added with cAMP-d2 (5 μL, 1×) and Anti-cAMP-Cryptate (5 μL, 1×) and placed at room temperature for 1 hour. A HTRF value was determined by a chemiluminescence microplate reader, and the results were recorded. An activation curve was plotted using GraphPad Prism software to calculate an IC50 value of each polypeptide derivative. […] The IC50 values of some polypeptides were exemplarily shown in this example, see Table 3, FIG. 2 and FIG. 3 for details.

The next experiment concerns the target T2, AMY3R (Homo sapiens, UniProt P30988).
T2 construct: expressed in transfected cells
T2 sequence (P30988 25-474): T1 sequence (P30988 25-474)
T2 sequence (O60896 24-148 partner): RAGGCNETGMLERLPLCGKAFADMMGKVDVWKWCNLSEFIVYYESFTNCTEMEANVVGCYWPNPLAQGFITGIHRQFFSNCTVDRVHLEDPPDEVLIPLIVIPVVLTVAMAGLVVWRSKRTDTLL
Kind of experiment: HTRF cAMP assay, AMY3R. It counts as cell-based. The following applies: HEK293/pGM-CREB-L-Luc/AMY3R pool, read-out: IC50 of receptor AMY3R.
Text: as §1, §2

In the case of `CC(=O)N[C@@H](C)C(=O)N[C@@H](CO)C(=O)N[C@@H](Cc1c[nH]cn1)C(=O)N[C@@H](CC(C)C)C(=O)N[C@@H](CO)C(=O)N[C@H](C(=O)N[C@@H](C)C(=O)N[C@H](C(=O)N[C@@H](CC(C)C)C(=O)NCC(=O)N[C@H]1CCCCNC(=O)CN(C(=O)COCCOCCNC(=O)CC[C@H](NC(=O)CCCCCCCCCCCCCCCCCCC(=O)O)C(=O)O)CC(=O)NCCCC[C@@H](C(=O)N[C@@H](CC(C)C)C(=O)NC(C)(C)C(=O)N[C@@H](CC(=O)O)C(=O)N[C@@H](Cc2ccc(O)cc2)C(=O)N2CCC[C@H]2C(=O)N[C@@H](CCC(N)=O)C(=O)N[C@H](C(=O)N[C@@H](CC(=O)O)C(=O)N[C@H](C(=O)NCC(=O)N[C@@H](C)C(=O)NCC(=O)N[C@@H](CO)C(=O)N2C[C@H](O)C[C@H]2C(N)=O)C(C)C)[C@@H](C)O)NC(=O)[C@H](Cc2c[nH]cn2)NC(=O)[C@H](CC(C)C)NC(=O)[C@H](CCC(=O)O)NC(=O)[C@H](C)NC(=O)[C@H](CO)NC(=O)[C@H](CC(C)C)NC1=O)C(C)C)[C@@H](C)O` [AMY-022, Ac-ASHLSTAVLGKLSAELHKL-Aib-DYPQTDVGAGS-Hyp-NH2], the EC50 worked out at 0.102 nM at CTR and 0.0679 nM on AMY3R.

With `CC(=O)N[C@@H](C)C(=O)N[C@@H](CO)C(=O)N[C@@H](Cc1c[nH]cn1)C(=O)N[C@@H](CC(C)C)C(=O)N[C@@H](CO)C(=O)N[C@H](C(=O)N[C@@H](C)C(=O)N[C@H](C(=O)N[C@@H](CC(C)C)C(=O)NCC(=O)N[C@H]1CSCC(=O)NCCN(C(=O)CCC(=O)NCCOCCOCC(=O)NCCOCCOCC(=O)NCCCC[C@H](NC(=O)CCCCCCCCCCCCCCCCCCC(=O)O)C(=O)O)CCNC(=O)CSC[C@@H](C(=O)N[C@@H](CC(C)C)C(=O)NC(C)(C)C(=O)N[C@@H](CC(=O)O)C(=O)N[C@@H](Cc2ccc(O)cc2)C(=O)N2CCC[C@H]2C(=O)N[C@@H](CCCNC(=N)N)C(=O)N[C@H](C(=O)N[C@@H](CC(=O)O)C(=O)N[C@H](C(=O)NCC(=O)N[C@@H](C)C(=O)NCC(=O)N[C@@H](CO)C(=O)N2CCC[C@H]2C(N)=O)C(C)C)[C@@H](C)O)NC(=O)[C@H](Cc2c[nH]cn2)NC(=O)[C@H](CC(C)C)NC(=O)[C@H](CCC(=O)O)NC(=O)[C@H](C)NC(=O)[C@H](CO)NC(=O)[C@H](CC(C)C)NC1=O)C(C)C)[C@@H](C)O` [AMY-006, Ac-ASHLSTAVLGCLSAELHCL-Aib-DYPRTDVGAGSP-NH2] (Ac-ASHLSTAVLGCLSAELHCL[Aib]DYPRTDVGAGSP-NH2; linker 11-18 via X1), the EC50 at CTR turned out to be 0.0107 nM; on AMY3R it was 0.0254 nM.

In the case of `CC(=O)N[C@@H](C)C(=O)N[C@@H](CO)C(=O)N[C@@H](Cc1c[nH]cn1)C(=O)N[C@@H](CC(C)C)C(=O)N[C@@H](CO)C(=O)N[C@H](C(=O)N[C@@H](C)C(=O)N[C@H](C(=O)N[C@@H](CC(C)C)C(=O)NCC(=O)N[C@@H](CCCNC(=N)N)C(=O)N[C@H]1CSCC(=O)NCCN(C(=O)CCC(=O)NCCOCCOCC(=O)NCCOCCOCC(=O)NCCCC[C@H](NC(=O)CCCCCCCCCCCCCCCCCCC(=O)O)C(=O)O)CCNC(=O)CSC[C@@H](C(=O)NC(C)(C)C(=O)N[C@@H](CC(=O)O)C(=O)N[C@@H](Cc2ccc(O)cc2)C(=O)N2CCC[C@H]2C(=O)N[C@@H](CCCNC(=N)N)C(=O)N[C@H](C(=O)N[C@@H](CC(=O)O)C(=O)N[C@H](C(=O)NCC(=O)N[C@@H](C)C(=O)NCC(=O)N[C@@H](CO)C(=O)N2CCC[C@H]2C(N)=O)C(C)C)[C@@H](C)O)NC(=O)[C@H](CCCCN)NC(=O)[C@H](Cc2c[nH]cn2)NC(=O)[C@H](CC(C)C)NC(=O)[C@H](CCC(=O)O)NC(=O)[C@H](C)NC(=O)[C@H](CO)NC1=O)C(C)C)[C@@H](C)O` [AMY-007, Ac-ASHLSTAVLGRCSAELHKC-Aib-DYPRTDVGAGSP-NH2] (Ac-ASHLSTAVLGRCSAELHKC[Aib]DYPRTDVGAGSP-NH2; linker 12-19 via X1), the EC50 on CTR came to 0.262 nM; on AMY3R it was 0.349 nM.

`CC(=O)N[C@@H](C)C(=O)N[C@@H](CO)C(=O)N[C@@H](Cc1c[nH]cn1)C(=O)N[C@@H](CC(C)C)C(=O)N[C@@H](CO)C(=O)N[C@H](C(=O)N[C@@H](C)C(=O)N[C@H](C(=O)N[C@@H](CC(C)C)C(=O)N[C@H]1CSCC(=O)NCCN(C(=O)CCC(=O)NCCOCCOCC(=O)NCCOCCOCC(=O)NCCCC[C@H](NC(=O)CCCCCCCCCCCCCCCCCCC(=O)O)C(=O)O)CCNC(=O)CSC[C@@H](C(=O)N[C@@H](CCCCN)C(=O)N[C@@H](CC(C)C)C(=O)NC(C)(C)C(=O)N[C@@H](CC(=O)O)C(=O)N[C@@H](Cc2ccc(O)cc2)C(=O)N2CCC[C@H]2C(=O)N[C@@H](CCCNC(=N)N)C(=O)N[C@H](C(=O)N[C@@H](CC(=O)O)C(=O)N[C@H](C(=O)NCC(=O)N[C@@H](C)C(=O)NCC(=O)N[C@@H](CO)C(=O)N2CCC[C@H]2C(N)=O)C(C)C)[C@@H](C)O)NC(=O)[C@H](CC(C)C)NC(=O)[C@H](CCC(=O)O)NC(=O)[C@H](C)NC(=O)[C@H](CO)NC(=O)[C@H](CC(C)C)NC(=O)[C@H](CCCNC(=N)N)NC1=O)C(C)C)[C@@H](C)O` [AMY-005, Ac-ASHLSTAVLCRLSAELCKL-Aib-DYPRTDVGAGSP-NH2] (Ac-ASHLSTAVLCRLSAELCKL[Aib]DYPRTDVGAGSP-NH2; linker 10-17 via X1): the EC50 stood at 0.303 nM at CTR and 0.198 nM on AMY3R.

Regarding `CC(=O)N[C@@H](C)C(=O)N[C@@H](CO)C(=O)N[C@@H](Cc1c[nH]cn1)C(=O)N[C@@H](CC(C)C)C(=O)N[C@@H](CO)C(=O)N[C@H](C(=O)N[C@@H](C)C(=O)N[C@H]1CSCC(=O)NCCN(C(=O)CCC(=O)NCCOCCOCC(=O)NCCOCCOCC(=O)NCCCC[C@H](NC(=O)CCCCCCCCCCCCCCCCCCC(=O)O)C(=O)O)CCNC(=O)CSC[C@@H](C(=O)N[C@@H](CC(C)C)C(=O)N[C@@H](Cc2c[nH]cn2)C(=O)N[C@@H](CCCN)C(=O)N[C@@H](CC(C)C)C(=O)NC(C)(C)C(=O)N[C@@H](CC(=O)O)C(=O)N[C@@](C)(Cc2ccccc2)C(=O)N2CCC[C@H]2C(=O)N[C@@H](CCCNC(=N)N)C(=O)N[C@H](C(=O)N[C@@H](CC(=O)O)C(=O)N[C@H](C(=O)NCC(=O)N[C@@H](C)C(=O)NCC(=O)N[C@@H](CO)C(=O)N2C[C@H](O)C[C@H]2C(N)=O)C(C)C)[C@@H](C)O)NC(=O)[C@H](C)NC(=O)[C@H](CO)NC(=O)[C@H](CC(C)C)NC(=O)[C@H](CCCNC(=N)N)NC(=O)CNC(=O)[C@H](CC(C)C)NC1=O)[C@@H](C)O` [AMY-009, Ac-ASHLSTACLGRLSACLH-Orn-L-Aib-D-(αMeF)-PRTDVGAGS-Hyp-NH2] (Ac-ASHLSTACLGRLSACLH[Orn]L[Aib]D[αMeF]PRTDVGAGS[Hyp]-NH2; linker 8-15 via X1), the EC50 at CTR came out at 0.0894 nM; on AMY3R, 0.0414 nM.
